According to US8518980B2, “Treatment of Duchenne muscular dystrophy” (Summit Corporation PLC, priority 2006, dated 2013):

The molecules below were run on Utrophin A promoter linked to a luciferase reporter gene (H2K/mdx/Utro A reporter cell line) (assay: Luciferase reporter assay (murine H2K cells)). Settings: Mus musculus, H2K mdx.
`Cc1ccc2nc(-c3ccc(NC(=O)c4cccnc4)cc3)sc2c1` [Example 638, N-(4-(6-methylbenzo[d]thiazol-2-yl)phenyl)nicotinamide] showed an activity at 10 µM of 301 to 400%. `O=C(Nc1ccc2c(c1)OCO2)c1sc2ccccc2c1Cl` [Example 618, N-(benzo[d][1,3]dioxol-5-yl)-3-chlorobenzo[b]thiophene-2-carboxamide] showed an activity at 10 µM of over 401%. For `CC1=NN(c2nc3ccccc3s2)C(=O)/C1=C(/C)NC1CC1` [Example 546, (Z)-1-(benzo[d]thiazol-2-yl)-4-(1-(cyclopropylamino)ethylidene)-3-methyl-1H-pyrazol-5(4H)-one], the activity at 10 µM was under 200%. For `Cc1cc(-c2nc3ccccc3o2)ccc1[N+](=O)[O-]` [Example 607, 2-(3-Methyl-4-nitrophenyl)benzo[d]oxazole], the activity at 10 µM was over 401%. Molecule `COc1ccc(-c2nc3cc(C)ccc3o2)cc1` [Example 675, 2-(4-methoxyphenyl)-5-methylbenzo[d]oxazole] has an activity at 10 µM of 201 to 300%. Work on `c1csc(-c2nc3cc4ccccc4cc3[nH]2)c1` [Example 561, 2-(thiophen-2-yl)-1H-naphtho[2,3-d]imidazole] yielded an activity at 10 µM of 301 to 400%. With `COc1ccc(-c2nc3ccccc3o2)cc1` [Example 583, 2-(4-Methoxyphenyl)benzo[d]oxazole] the activity at 10 µM was 301 to 400%. `COc1ccc(-c2nc3cc([N+](=O)[O-])ccc3[nH]2)cc1OC` [Example 520, 2-(3,4-dimethoxyphenyl)-5-nitro-1H-benzo[d]imidazole] was tested, and the activity at 10 µM was under 200%. `O=C(COc1ccc2c(c1)OCO2)Nc1nc2ccccc2s1` [Example 614, 2-(Benzo[d][1,3]dioxol-5-yloxy)-N-(benzo[d]thiazol-2-yl)acetamide] was tested, and the activity at 10 µM was under 200%. Molecule `Nc1ccc(-c2nc3ccc(N)cc3o2)cc1` [Example 544, 2-(4-aminophenyl)benzo[d]oxazol-6-amine] has an activity at 10 µM of 201 to 300%. With `O=C(Nc1nc2ccccc2s1)c1cc2ccccc2o1` [Example 626, N-(benzo[d]thiazol-2-yl)benzofuran-2-carboxamide] the activity at 10 µM was over 401%. `CCCCc1nc2cc(S(=O)(=O)CC)ccc2o1` [Example 570, 2-butyl-5-(ethylsulfonyl)benzo[d]oxazole] gave an activity at 10 µM of under 200%. For `c1cc(NCc2ccncc2)cc(-c2nc3ccccc3s2)c1` [Example 647, 3-(benzo[d]thiazol-2-yl)-N-(pyridin-4-ylmethyl)aniline], the activity at 10 µM was 301 to 400%. For `Cc1ccc(-c2nc3cc(N)ccc3o2)cc1Cl` [Example 526, 2-(3-chloro-4-methylphenyl)benzo[d]oxazol-5-amine], the activity at 10 µM was 201 to 300%. `CCn1c(C)nc2cc(C(=O)Nc3ccccc3)ccc21` [Example 615, 1-ethyl-2-methyl-N-phenyl-1H-benzo[d]imidazole-5-carboxamide] gave an activity at 10 µM of over 401%. `COc1cccc(-c2nc3ccccc3[nH]2)c1` [Example 600, 2-(3-Methoxyphenyl)-1H-benzo[d]imidazole] showed an activity at 10 µM of 201 to 300%. With `COc1ccc(-c2nc3ccccc3s2)cc1N` [Example 597, 5-(Benzo[d]thiazol-2-yl)-2-methoxyaniline] the activity at 10 µM was 301 to 400%. Molecule `Cc1cc2nc(-c3cc(N)ccc3Cl)oc2cc1C` [Example 646, 4-chloro-3-(5,6-dimethylbenzo[d]oxazol-2-yl)aniline] has an activity at 10 µM of 301 to 400%. In the case of `Cc1ccc2[nH]c(-c3ccc([N+](=O)[O-])cc3)nc2c1` [Example 605, 5-Methyl-2-(4-nitrophenyl)-1H-benzo[d]imidazole], the activity at 10 µM is reported as 301 to 400%. Work on `Fc1ccccc1-c1nc2ccccc2[nH]1` [Example 507, 2-(2-fluorophenyl)-1H-benzo[d]imidazole] yielded an activity at 10 µM of 201 to 300%. Work on `Nc1ccc2oc(-c3cccc(Cl)c3)nc2c1` [Example 489, 2-(3-chlorophenyl)benzo[d]oxazol-5-amine] yielded an activity at 10 µM of 201 to 300%. In the case of `Cc1cc(C)c2nc(-c3ccc(N)cc3)oc2c1` [Example 590, 4-(4,6-Dimethylbenzo[d]oxazol-2-yl)aniline], the activity at 10 µM is reported as over 401%. In the case of `CC(C)(C)c1ccc2oc(-c3ccc(N)cc3)nc2c1` [Example 593, 4-(5-Tert-butylbenzo[d]oxazol-2-yl)aniline], the activity at 10 µM is reported as 301 to 400%. `c1ccc2nc(-c3nc4ccccc4s3)ccc2c1` [Example 639, 2-(quinolin-2-yl)benzo[d]thiazole] was tested, and the activity at 10 µM was 301 to 400%. Work on `CCCc1nc2cc(S(=O)(=O)CC)ccc2o1` [Example 571, 5-(ethylsulfonyl)-2-propylbenzo[d]oxazole] yielded an activity at 10 µM of under 200%. `COc1ccc(-c2nc3ccc([N+](=O)[O-])cc3o2)cc1` [Example 584, 2-(4-Methoxyphenyl)-6-nitrobenzo[d]oxazole] was tested, and the activity at 10 µM was 301 to 400%. Molecule `O=[N+]([O-])c1ccc(Cl)c(-c2nc3ccccc3s2)c1` [Example 524, 2-(2-chloro-5-nitrophenyl)benzo[d]thiazole] has an activity at 10 µM of under 200%. Work on `O=C(Nc1nc2ccccc2s1)c1cc(Br)ccc1Cl` [Example 671, N-(benzo[d]thiazol-2-yl)-5-bromo-2-chlorobenzamide] yielded an activity at 10 µM of 201 to 300%. `CN(C)c1ccc(-c2nc3cc([N+](=O)[O-])ccc3[nH]2)cc1` [Example 509, N,N-dimethyl-4-(5-nitro-1H-benzo[d]imidazol-2-yl)aniline] showed an activity at 10 µM of 201 to 300%. `Clc1cccc(-c2nc3ccccc3[nH]2)c1` [Example 514, 2-(3-chlorophenyl)-1H-benzo[d]imidazole] showed an activity at 10 µM of under 200%. Molecule `Cc1cc2oc(C(=O)NCc3ccncc3)c(C)c2cc1C` [Example 656, 3,5,6-trimethyl-N-(pyridin-4-ylmethyl)benzofuran-2-carboxamide] has an activity at 10 µM of 301 to 400%. `Nc1ccc(-c2nc3ccccc3s2)cc1` [Example 601, 4-(Benzo[d]thiazol-2-yl)aniline] was tested, and the activity at 10 µM was 301 to 400%. `CC(=O)Nc1ccc(-c2nc3cc(C)ccc3o2)cc1` [Example 662, N-(4-(5-methylbenzo[d]oxazol-2-yl)phenyl)acetamide] showed an activity at 10 µM of 301 to 400%. Work on `O=C(Cc1ccccc1)Nc1ccc(-c2nc3ccccc3[nH]2)cc1` [Example 501, N-(4-(1H-benzo[d]imidazol-2-yl)phenyl)-2-phenylacetamide] yielded an activity at 10 µM of under 200%. `CCOc1ccc(NCc2nc3ccccc3n2C)cc1` [Example 676, 4-ethoxy-N-((1-methyl-1H-benzo[d]imidazol-2-yl)methyl)aniline] showed an activity at 10 µM of 201 to 300%. With `COc1cccc(-c2nc3ccccc3s2)c1` [Example 606, 2-(3-Methoxyphenyl)benzo[d]thiazole] the activity at 10 µM was 301 to 400%. `Cc1ccc(-c2nc3ccccc3[nH]2)cc1NC(=O)C(F)(F)F` [Example 568, N-(5-(1H-benzo[d]imidazol-2-yl)-2-methylphenyl)-2,2,2-trifluoroacetamide] showed an activity at 10 µM of 301 to 400%. For `COc1ccc(CSc2nc3ccccc3n2C)cc1F` [Example 645, 2-(3-fluoro-4-methoxybenzylthio)-1-methyl-1H-benzo[d]imidazole], the activity at 10 µM was 301 to 400%. With `O=[N+]([O-])c1cc(-c2nc3ccccc3s2)ccc1Cl` [Example 523, 2-(4-chloro-3-nitrophenyl)benzo[d]thiazole] the activity at 10 µM was under 200%. Work on `CCC(=O)Nc1ccc(-c2nc3ccccc3s2)cc1` [Example 667, N-(4-(benzo[d]thiazol-2-yl)phenyl)propionamide] yielded an activity at 10 µM of 201 to 300%.

Same assay, conditions: Table 2; luciferase level relative to control; final concentration of 10 μM
`COc1ccc(OCc2nc3ccccc3[nH]2)cc1` [Example 473, 2-((4-methoxyphenoxy)methyl)-1H-benzo[d]imidazole] was tested, and the Activity was “++ (Between 201% and 300% relative to control)”.
